# Measurements: US6737383B1, “Herbicidal oxadiazolidines” (priority 1999, dated 2004)
# Columns and labels:
# [1] = system: duck salad; assay: Test B flood test duck salad; type: in vivo, Heteranthera limosa
# Outline: (§1)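 Plants were grown to the 2-leaf stage before treatment with test chemical, then held in a greenhouse for twelve to sixteen days. Injury was visually rated against untreated controls on a 0–10 scale, where 0 is no effect and 10 is complete control.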
# [2] = system: pigweed; assay: Test B pre/postemergence pigweed; type: in vivo, Amaranthus retroflexus
# Outline: (§2)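 Herbicidal effect was estimated by eye on a ten-point control scale after plants spent twelve to sixteen days in a greenhouse following soil or foliar treatment. Foliar sprays targeted plants at one to four leaves; all doses were formulated in a non-phytotoxic solvent with surfactant.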
# [3] = system: smallflower flatsedge; assay: Test B flood test smallflower flatsedge; type: in vivo, Cyperus difformis
# Outline: as §1
# [4] = system: wild oat; assay: Test B pre/postemergence wild oat; type: in vivo, Avena fatua
# Outline: as §2
# [5] = system: surinam grass; assay: Test B pre/postemergence surinam grass; type: in vivo, Brachiaria decumbens
# Outline: as §2
# [6] = system: morningglory; assay: Test B pre/postemergence morningglory; type: in vivo, Ipomoea hederacea
# Outline: as §2
# [7] = system: purple nutsedge; assay: Test B pre/postemergence purple nutsedge; type: in vivo, Cyperus rotundus; settings: Preemergence
# Outline: as §2
# [8] = system: crabgrass; assay: Test B pre/postemergence crabgrass; type: in vivo, Digitaria sanguinalis
# Outline: as §2
# [9] = system: rape; assay: Test B pre/postemergence rape; type: in vivo, Brassica napus
# Outline: as §2
# [10] = system: corn; assay: Test B pre/postemergence corn; type: in vivo, Zea mays
# Outline: as §2
# [11] = system: cocklebur; assay: Test B pre/postemergence cocklebur; type: in vivo, Xanthium strumarium
# Outline: as §2
# [12] = system: wheat; assay: Test B pre/postemergence wheat; type: in vivo, Triticum aestivum
# Outline: as §2
# [13] = system: rice; assay: Test B flood test rice; type: in vivo, Oryza sativa
# Outline: as §1
# [14] = system: sugar beet; assay: Test B pre/postemergence sugar beet; type: in vivo, Beta vulgaris
# Outline: as §2
# [15] = system: bamyardgrass; assay: Test B flood test barnyardgrass; type: in vivo, Echinochloa crus-galli
# Outline: as §1
# [16] = system: giant foxtail; assay: Test B pre/postemergence giant foxtail; type: in vivo, Setaria faberii
# Outline: as §2
# [17] = Postemergence, Rate 1000 g/ha, scale 0 to 10 (0 no effect, 10 complete control)
# [18] = Rate 125 g/ha, Postemergence section (flood test species), scale 0 to 10, 0 no effect, 10 complete control
# [19] = Rate 250 g/ha, headed Pre-emergence (flood test species), scale 0 to 10 (0 no effect, 10 complete control)
# [20] = Rate 500 g/ha, Postemergence section of Table B, 0 to 10 scale (0 no effect, 10 complete control)
# [21] = Rate 500 g/ha, headed Pre-emergence (flood test species), scale 0 to 10 (0 no effect, 10 complete control)
# [22] = Rate 1000 g/ha, Pre-emergence (as headed), scale 0 to 10
# [23] = Rate 2000 g/ha, Pre-emergence (as headed), scale 0 to 10
# [24] = flood test, listed under Postemergence, Rate 250 g/ha, scale 0 to 10, 0 no effect, 10 complete control
# [25] = Postemergence, Rate 250 g/ha, scale 0 to 10, 0 no effect, 10 complete control
# [26] = Preemergence, Rate 125 g/ha, scale 0 to 10 (0 no effect, 10 complete control)
# [27] = Preemergence, Rate 250 g/ha, scale of 0 to 10 where 0 is no effect and 10 is complete control
# [28] = Preemergence, Rate 500 g/ha, scale 0 (no effect) to 10 (complete control)
# [29] = Rate 125 g/ha, Postemergence, scale 0 to 10, 0 no effect, 10 complete control
# [30] = Rate 500 g/ha, Postemergence, 0 to 10 scale (0 no effect, 10 complete control)
# [31] = Rate 1000 g/ha, Preemergence, scale 0 to 10 (0 no effect, 10 complete control)
smiles,measurement,setting,value
"CC(C)N(C(=O)n1oc(=O)n(-c2ccc(Cl)cc2Cl)c1=O)c1ccc(F)cc1 [Compound 7, 4-(2,4-Dichlorophenyl)-N-(4-fluorophenyl)-N-(1-methylethyl)-3,5-dioxo-1,2,4-oxadiazolidine-2-carboxamide]",Ducksalad plant response rating,[1]; [17],0
same,Ducksalad plant response rating,[1]; [18],0
same,Ducksalad plant response rating,[1]; [19],0
same,Ducksalad plant response rating,[1]; [20],0
same,"Plant response rating, Ducksalad",[1]; [21],0
same,Ducksalad plant response rating,[1]; [22],0
same,Ducksalad plant response rating,[1]; [23],0
same,Ducksalad plant response rating,[1]; [24],0
same,Redroot pigweed plant response rating,[2]; [25],0
same,Redroot pigweed plant response rating,[2]; [17],0
same,"Plant response rating, Redroot pigweed",[2]; [26],0
same,"Plant response rating, Redroot pigweed",[2]; [27],0
same,Redroot pigweed plant response rating,[2]; [28],0
same,Redroot pigweed plant response rating,[2]; [29],0
same,Redroot pigweed plant response rating,[2]; [30],0
same,"Plant response rating, Redroot pigweed",[2]; [31],2
same,S. Flatsedge plant response rating,[3]; [17],0
same,S. Flatsedge plant response rating,"[3]; Pre-emergence, Rate 1000 g/ha, scale 0 to 10 (0 no effect, 10 complete control)",0
same,S. Flatsedge plant response rating,[3]; [18],0
same,S. Flatsedge plant response rating,[3]; [19],0
same,"Plant response rating, S. Flatsedge",[3]; [21],0
same,S. Flatsedge plant response rating,[3]; [23],0
same,S. Flatsedge plant response rating,[3]; [24],0
same,Wild oats plant response rating,[4]; [25],0
same,Wild oats plant response rating,[4]; [17],3
same,"Plant response rating, Wild oats",[4]; [26],0
same,"Plant response rating, Wild oats",[4]; [27],0
same,Wild oats plant response rating,[4]; [28],0
same,Wild oats plant response rating,[4]; [29],0
same,"Plant response rating, Wild oats",[4]; [31],0
same,B. signalgrass plant response rating,[5]; [25],0
same,B. signalgrass plant response rating,[5]; [17],6
same,"Plant response rating, B. signalgrass",[5]; [26],0
same,"Plant response rating, B. signalgrass",[5]; [27],0
same,B. signalgrass plant response rating,[5]; [28],0
same,B. signalgrass plant response rating,[5]; [29],0
same,B. signalgrass plant response rating,[5]; [30],3
same,"Plant response rating, B. signalgrass",[5]; [31],3
same,Morningglory plant response rating,[6]; [17],3
same,"Plant response rating, Morningglory",[6]; [26],0
same,"Plant response rating, Morningglory",[6]; [27],0
same,Morningglory plant response rating,[6]; [28],0
same,Morningglory plant response rating,[6]; [29],0
same,Morningglory plant response rating,[6]; [30],0
same,"Plant response rating, Morningglory",[6]; [31],0
same,"Plant response rating, Nutsedge","[7]; Rate 125 g/ha, scale 0 to 10 (0 no effect, 10 complete control)",0
same,"Plant response rating, Nutsedge","[7]; Rate 250 g/ha, scale of 0 to 10 where 0 is no effect and 10 is complete control",0
same,Nutsedge plant response rating,"[7]; Rate 500 g/ha, scale 0 (no effect) to 10 (complete control)",0
same,"Plant response rating, Nutsedge","[7]; Rate 1000 g/ha, scale 0 to 10 (0 no effect, 10 complete control)",0
same,Crabgrass plant response rating,[8]; [25],1
same,Crabgrass plant response rating,[8]; [17],5
same,"Plant response rating, Crabgrass",[8]; [26],7
same,Crabgrass plant response rating,[8]; [28],8
same,Crabgrass plant response rating,[8]; [29],0
same,Crabgrass plant response rating,[8]; [30],3
same,"Plant response rating, Crabgrass",[8]; [31],8
same,Rape plant response rating,[9]; [25],0
same,Rape plant response rating,[9]; [17],0
same,"Plant response rating, Rape",[9]; [26],0
same,"Plant response rating, Rape",[9]; [27],0
same,Rape plant response rating,[9]; [28],0
same,Rape plant response rating,[9]; [29],0
same,Rape plant response rating,[9]; [30],0
same,"Plant response rating, Rape",[9]; [31],0
same,Corn plant response rating,[10]; [25],0
same,Corn plant response rating,[10]; [17],0
same,"Plant response rating, Corn",[10]; [26],0
same,"Plant response rating, Corn",[10]; [27],0
same,Corn plant response rating,[10]; [28],0
same,Corn plant response rating,[10]; [29],0
same,Corn plant response rating,[10]; [30],0
same,"Plant response rating, Corn",[10]; [31],0
same,Cocklebur plant response rating,[11]; [25],0
same,Cocklebur plant response rating,[11]; [17],2
same,"Plant response rating, Cocklebur",[11]; [27],0
same,Cocklebur plant response rating,[11]; [28],0
same,Cocklebur plant response rating,[11]; [29],0
same,Cocklebur plant response rating,[11]; [30],0
same,"Plant response rating, Cocklebur",[11]; [31],0
same,Wheat plant response rating,[12]; [25],0
same,Wheat plant response rating,[12]; [17],2
same,"Plant response rating, Wheat",[12]; [26],0
same,"Plant response rating, Wheat",[12]; [27],0
same,Wheat plant response rating,[12]; [28],0
same,Wheat plant response rating,[12]; [29],0
same,"Plant response rating, Wheat",[12]; [31],0
same,Rice plant response rating,[13]; [17],0
same,Rice plant response rating,[13]; [18],0
same,Rice plant response rating,[13]; [19],0
same,Rice plant response rating,[13]; [20],0
same,"Plant response rating, Rice",[13]; [21],0
same,Rice plant response rating,[13]; [22],0
same,Rice plant response rating,[13]; [23],0
same,Rice plant response rating,[13]; [24],0
same,Sugarbeets plant response rating,[14]; [25],0
same,Sugarbeets plant response rating,[14]; [17],2
same,"Plant response rating, Sugarbeets",[14]; [26],0
same,"Plant response rating, Sugarbeets",[14]; [27],0
same,Sugarbeets plant response rating,[14]; [28],0
same,Sugarbeets plant response rating,[14]; [29],0
same,"Plant response rating, Sugarbeets",[14]; [31],0
same,Barnyardgrass plant response rating,[15]; [17],0
same,Barnyardgrass plant response rating,[15]; [18],0
same,Barnyardgrass plant response rating,[15]; [19],0
same,Barnyardgrass plant response rating,[15]; [20],0
same,"Plant response rating, Barnyardgrass",[15]; [21],0
same,Barnyardgrass plant response rating,[15]; [22],0
same,Barnyardgrass plant response rating,"[15]; Rate 2000 g/ha, Pre-emergence (as headed), scale 0 to 10, 0 no effect, 10 complete control",0
same,Barnyardgrass plant response rating,[15]; [24],0
same,Giant foxtail plant response rating,[16]; [25],3
same,Giant foxtail plant response rating,[16]; [17],6
same,"Plant response rating, Giant foxtail",[16]; [26],2
same,"Plant response rating, Giant foxtail",[16]; [27],5
same,Giant foxtail plant response rating,[16]; [28],8
same,Giant foxtail plant response rating,[16]; [29],0
same,Giant foxtail plant response rating,[16]; [30],5
same,"Plant response rating, Giant foxtail",[16]; [31],9
